Source: US6534655B1, “Indeno[1,2-C]pyrazole derivatives for inhibiting tyrosine kinase activity” (BASF Aktiengesellschaft, priority 1997, dated 2003)

Assays:
KDR tyrosine kinase = target: T1, KDR tyrosine kinase (Homo sapiens, UniProt P35968); test: KDR in vitro ELISA (tyrosine kinase activity); assay type: biochemical; details: ATP 5 μM, 5% DMSO, poly(Glu,Tyr) 4:1 substrate
T1 construct: poly-His6 (N); made in house; host or cells: SF-9 insect cells (recombinant baculovirus, pVL1393)
Description: The coding sequence for the KDR intra-cellular domain (aa789-1354) was generated through PCR using cDNAs isolated from HUVEC cells. A poly-His6 sequence was introduced at the N-terminus of this protein as well. This fragment was cloned into transfection vector pVL1393 at the Xba 1 and Not 1 site. Recombinant baculovirus (BV) was generated through co-transfection using the BaculoGold Transfection reagent (PharMingen). Recombinant BV was plaque purified and verified through Western analysis. For protein production, SF-9 cells were grown in SF-900-II medium at 2×10^6/ml, and were infected at 0.5 plaque forming units per cell (MOI). Cells were harvested at 48 hours post infection.
SF-9 cells expressing (His)6KDR(aa789-1354) were lysed by adding 50 ml of Triton X-100 lysis buffer (20 mM Tris, pH 8.0, 137 mM NaCl, 10% glycerol, 1% Triton X-100, 1 mM PMSF, 10 μg/ml aprotinin, 1 μg/ml leupeptin) to the cell pellet from 1 L of cell culture. The lysate was centrifuged at 19,000 rpm in a Sorval SS-34 rotor for 30 min at 4° C. The cell lysate was applied to a 5 ml NiCl2 chelating sepharose column, equilibrated with 50 mM HEPES, pH7.5, 0.3 M NaCl. KDR was eluted using the same buffer containing 0.25 M imidazole. Column fractions were analyzed using SDS-PAGE and an ELISA assay (below) which measures kinase activity. The purified KDR was exchanged into 25 mM HEPES, pH7.5, 25 mM NaCl, 5 mM DTT buffer and stored at −80° C.
The disclosed protocol can be adapted for determining activity with respect to a specific RTK. For example, preferred protocols for conducting the ELISA experiments for KDR is provided below. Adaptation of these protocols for determining a compound's activity for other members of the RTK family, as well as non-receptor tyrosine kinases, are well within the abilities of those in the art. […]
Stop with 1M Phosphoric acid. Shake on plate reader.
Read OD immediately at 450 nm
Optimal incubation times and enzyme reaction conditions vary slightly with enzyme preparations and are determined empirically for each lot.

[1] = test system: Human umbilical vein endothelial cells (HUVEC); test: HUVEC mitogenesis assay (tritiated thymidine incorporation); assay type: cell-based; details: mitogenesis induced by VEGF, FGF or Complete Media (stimulus not given)
Protocol: B. HUVEC Mitogenesis Assay
Human umbilical vein endothelial cells (HUVEC) were cultured in EGM-Complete Media (endothelial growth media supplemented with 10% FBS, hydrocortisone, epidermal growth factor and bovine brain extract as per the supplier's directions). Cells, media and supplements were purchased from Clonetics (San Diego, Calif.). The HUVEC Mitogenesis Assay was used to measure inhibition of mitogenesis induced by VEGF, FGF or Complete Media. Cells were harvested by trypsinization, washed once and suspended in Complete Media (CM) at a concentration of 5,000 cells/0.15 ml. Cells were seeded into 96-well plates at 5,000 cells/well and incubated at 37° C. for 24 hours. Cells were washed once with serum-free media (SFM) and incubated under serum-free conditions for 24 hours. Non-serum starved control wells were cultured with CM during this period. Test compounds were prepared as 10 mM stock solutions in DMSO, diluted in SFM and added to wells over a concentration range (0.005-50 μM final concentration). Cells were incubated for 1 hour prior to addition of 50 ng/ml VEGF or FGF (R & D Systems, Minneapolis, Minn.). Complete media stimulated wells received the test compound and stimulus simultaneously. […] Plates were harvested onto filter mats with a Tomtec Harvester and counted with a Betaplate liquid scintillation counter (Wallac).

KDR = target: T2, KDR (Homo sapiens, UniProt P35968); test: VEGF-induced KDR phosphorylation in HUVEC measured by Western blots; assay type: cell-based; details: VEGF(165) 50 ng/ml, Western blot, read-out: cellular IC50 (VEGF-induced KDR phosphorylation)
T2 construct: HUVEC cells (from pooled donors) were purchased from Clonetics (San Diego, Calif.) and cultured according to the manufacturer directions; host or cells: HUVEC (pooled donors, passages 3-8)
T2 sequence (P35968 20-1356): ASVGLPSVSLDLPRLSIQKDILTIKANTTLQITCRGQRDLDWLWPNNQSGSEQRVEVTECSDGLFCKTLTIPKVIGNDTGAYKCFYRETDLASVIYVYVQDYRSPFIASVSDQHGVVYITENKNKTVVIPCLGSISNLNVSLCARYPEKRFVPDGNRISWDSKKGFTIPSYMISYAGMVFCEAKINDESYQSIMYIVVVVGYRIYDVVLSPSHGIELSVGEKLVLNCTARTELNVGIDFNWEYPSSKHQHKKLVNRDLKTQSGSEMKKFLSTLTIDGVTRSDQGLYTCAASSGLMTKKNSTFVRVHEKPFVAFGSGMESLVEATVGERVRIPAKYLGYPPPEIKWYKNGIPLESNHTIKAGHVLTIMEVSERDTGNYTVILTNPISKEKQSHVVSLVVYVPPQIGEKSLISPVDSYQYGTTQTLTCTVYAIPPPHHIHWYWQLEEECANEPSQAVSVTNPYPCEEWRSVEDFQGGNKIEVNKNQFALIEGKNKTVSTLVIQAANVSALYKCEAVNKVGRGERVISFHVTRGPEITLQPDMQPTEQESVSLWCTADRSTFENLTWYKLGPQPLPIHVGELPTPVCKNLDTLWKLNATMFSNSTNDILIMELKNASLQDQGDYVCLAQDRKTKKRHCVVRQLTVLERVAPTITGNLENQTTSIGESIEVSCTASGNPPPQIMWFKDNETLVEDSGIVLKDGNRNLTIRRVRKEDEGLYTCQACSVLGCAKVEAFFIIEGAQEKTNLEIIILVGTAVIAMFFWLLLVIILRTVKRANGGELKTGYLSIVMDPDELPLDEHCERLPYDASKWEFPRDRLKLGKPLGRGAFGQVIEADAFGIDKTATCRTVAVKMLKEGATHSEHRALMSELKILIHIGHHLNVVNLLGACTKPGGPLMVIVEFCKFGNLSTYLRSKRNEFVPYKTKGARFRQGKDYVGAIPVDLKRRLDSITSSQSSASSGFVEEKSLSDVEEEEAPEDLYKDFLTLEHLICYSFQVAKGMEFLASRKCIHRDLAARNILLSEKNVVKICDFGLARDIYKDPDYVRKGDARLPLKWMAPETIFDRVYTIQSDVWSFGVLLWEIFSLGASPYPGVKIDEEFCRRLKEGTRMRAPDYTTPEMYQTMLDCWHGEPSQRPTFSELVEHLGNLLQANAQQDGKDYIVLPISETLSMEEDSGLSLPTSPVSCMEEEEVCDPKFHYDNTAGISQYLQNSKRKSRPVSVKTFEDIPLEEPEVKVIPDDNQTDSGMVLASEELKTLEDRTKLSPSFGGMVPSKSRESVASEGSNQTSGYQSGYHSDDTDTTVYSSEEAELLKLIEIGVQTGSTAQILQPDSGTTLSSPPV
Protocol: A. VEGF-Induced KDR Phosphorylation in Human Umbilical Vein Cells (HUVEC) as Measured by Western Blots.
1. HUVEC cells (from pooled donors) were purchased from Clonetics (San Diego, Calif.) and cultured according to the manufacturer directions. Only early passages (3-8) were used for this assay. Cells were cultured in 100 mm dishes (Falcon for tissue culture; Becton Dickinson; Plymouth, England) using complete EBM media (Clonetics).
2. For evaluating a compound's inhibitory activity, cells were trypsinized and seeded at 0.5-1.0×10^5 cells/well in each well of 6-well cluster plates (Costar; Cambridge, Mass.).
3. 3-4 days after seeding, plates were 90-100% confluent. Medium was removed from all the wells, cells were rinsed with 5-10 ml of PBS and incubated 18-24 h with 5 ml of EBM base media with no supplements added (i.e., serum starvation).
4. Serial dilutions of inhibitors were added in 1 ml of EBM media (25 uM, 5 uM, or 1 uM final concentration) to cells and incubated for one hour at 37° C. Human recombinant VEGF(165) (R&D Systems) was then added to all the wells in 2 ml of EBM medium at a final concentration of 50 ng/ml and incubated at 37° C. for 10 minutes. Control cells untreated or treated with VEGF only were used to assess background phosphorylation and induction by VEGF.
5. […]

T1 sequence (P35968 789-1354): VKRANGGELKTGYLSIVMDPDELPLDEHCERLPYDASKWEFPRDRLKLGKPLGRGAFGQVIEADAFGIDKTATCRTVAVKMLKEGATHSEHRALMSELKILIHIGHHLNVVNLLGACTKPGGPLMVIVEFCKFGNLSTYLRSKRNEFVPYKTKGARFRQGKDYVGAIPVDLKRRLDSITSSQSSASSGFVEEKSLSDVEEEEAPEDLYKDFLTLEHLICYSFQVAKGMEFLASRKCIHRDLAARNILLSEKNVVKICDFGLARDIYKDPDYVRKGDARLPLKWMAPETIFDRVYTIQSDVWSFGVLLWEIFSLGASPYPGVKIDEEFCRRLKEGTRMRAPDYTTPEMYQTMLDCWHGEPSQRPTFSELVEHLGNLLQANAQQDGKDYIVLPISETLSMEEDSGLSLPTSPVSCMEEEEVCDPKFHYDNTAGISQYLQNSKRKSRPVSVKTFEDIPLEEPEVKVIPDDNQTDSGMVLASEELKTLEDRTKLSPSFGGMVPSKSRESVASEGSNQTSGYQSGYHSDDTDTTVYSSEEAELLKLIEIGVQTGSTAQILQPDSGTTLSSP

IC50 (KDR tyrosine kinase) [µM] | melting point [°C] | Structure (SMILES) | further results
> 100 | – | Cc1c2c(nn1-c1ccccc1)-c1ccccc1C2=O | –
0.15 | – | O=C1c2ccccc2-c2[nH]nc(-c3ccccc3)c21 [3-phenylindeno[1,2-c]pyrazol-4(1H)-one] | IC50 [1]: < 0.1 µM; IC50 (KDR): 3 µM
– | > 330 | O=C1c2ccccc2-c2[nH]nc(-c3ccc(Cl)cc3)c21 [Example 3, 3-(4-chlorophenyl)indeno[1,2-c]pyrazol-4(1H)-one] | –
– | 269 to 272 | OC1c2ccccc2-c2[nH]nc(-c3ccccc3)c21 (stereo not shown) [Example 7, 3-phenyl-1,4-dihydroindeno[1,2-c]pyrazol-4-ol] | –

Continued, compound first:

Structure (SMILES) | IC50 (KDR tyrosine kinase) [µM] | melting point [°C] | further results
C1=NC(n2nc(-c3ccccc3)cc2-c2ccccc2)NC1 (stereo not shown) | > 100 | – | –
COc1cc(-c2n[nH]c3c2C(=O)c2ccccc2-3)cc(OC)c1OC [Example 2, 3-(3,4,5-Trimethoxyphenyl)indeno[1,2-c]pyrazol-4(1H)-one] | – | 268 to 272 | –
CN1NC(c2ccccc2)C2=C1c1ccccc1C2=O (stereo not shown) [Example 5, 1-methyl-3-phenylindeno[1,2-c]pyrazol-4(2H)-one] | – | 187 to 188 | –
COc1ccc(-c2n[nH]c3c2C(O)c2ccccc2-3)cc1OC (stereo not shown) [Example 6, 3-(3,4-dimethoxyphenyl)-1,4-dihydroindeno[1,2-c]pyrazol-4-ol] | – | 197 to 199 | –
